By IC50 is commonly meant the concentration at which inhibition is half-maximal. By melting point is commonly meant the temperature of the solid-liquid transition.

In data set [1] the test system is protein kinases extracted from HT-29 cell line. Kind of data set: Kinase inhibition assessment, single dose, ADP-Glo assay. Format: biochemical, human. The conditions noted are these: 20 μM single dose, total intracellular kinases from HT-29, 45 min. As for the experimental part: Inhibitory activity against kinases of the selected compounds was examined using homogeneous protein kinases extracted from HT-29 cell line. The screening assay was performed in a single dose concentration (20 μM) by using ADP-Glo assay (Promega, Madison, WI, USA).
Briefly, protein kinases were added into a 96-well plate followed by addition of the synthesized compounds at the tested dose (20 μM). After 45 min of exposure, kinase activity was assessed using a luminescent luciferase/luciferin reaction. Luminescence quantification was measured by using a Varioskan™ LUX multimode microplate reader (Thermo Scientific, Waltham, MA, USA). Kinase inhibition effect of tested compounds was expressed as the percentage of remaining kinase activity relative to vehicle kinase reaction.
(In general: In ADP-Glo the light output rises with the ADP produced.)

The test system of the next data set is MCF-7. Kind of data set: MTT dose-response anti-proliferative assay, MCF-7. Format: cell-based, human. An excerpt: (§1) Doxorubicin was used as a positive reference for the comparison of anticancer activities. The results are tabulated as IC50 value in the μM range, Table 1.
(§2) Three cancer cell lines were used in the antiproliferative activities experiments, namely, breast cancer cell line (MCF-7) and human hepatoma cell line (HepG-2), and Colorectal cell line (HT-29). The source of cell lines is the health sciences research center-core lab- at princess Nou-rah bint Abdulrahman university. All cell lines were maintained in their optimum media (RPMI-1640 or DMEM) supplemented with 10% fetal bovine serum, 100 U/mL penicillin, and 100 μg/mL streptomycin and incubated in a humidified atmosphere at 37 °C with 5% CO2.
(§3) The MTT assay was used to evaluate the anti-proliferative effect of the synthesized compounds against three human cancer cell lines hepatocellular carcinoma (HepG-2), breast cancer (MCF-7) and Colorectal carcinoma (HT-29). For the preliminary screening, HT-29 cells were seeded in 96-well plates (Thermo Scientific, Waltham, MA, USA)(10^3 cells/well) and incubated for 24 h before the treatment. Then, cells were treated with two concentrations (10 and 100 µM) of the tested compounds for 72 h. After the exposure, MTT assay protocol was performed as described. After evaluation of the preliminary anticancer activity, the promising synthesized compounds (8, 9a, 9b, 10a, and 11) were selected and examined against three cell lines (HepG-2, MCF-7, and HT-29). Cells were exposed to serial concentration ([…]) of the selected compounds and dose–response curves were determined to calculate their IC50 values.

A further data set concerns HT-29 cells. Kind of data set: Preliminary antiproliferative assessment (MTT) at 10 and 100 μM. The class given is cell-based, human. The conditions noted are these: for growth inhibitory activities against HT-29 cells (preliminary assay): 10 and 100 μM, 72 h; for cytotoxic profile: result in words. As for the experimental part:
All synthesized compounds were subjected to preliminary antiproliferative assessment that was performed on HT-29 cells using concentrations 10 and 100 μM of synthesized compounds for 72 h and the percentage of cell viability was then calculated. […] Thus, all five compounds were further studied by a detailed dose–response relationship against three different cancerous cell lines HT-29, Hep-G2 and MCF-7.
as §2, §3

A further data set deals with T1, FLT3 (Homo sapiens, UniProt P36888).
T1 construct: purchased BD Biosciences, San Diego, CA, USA
T1 sequence (P36888 27-993): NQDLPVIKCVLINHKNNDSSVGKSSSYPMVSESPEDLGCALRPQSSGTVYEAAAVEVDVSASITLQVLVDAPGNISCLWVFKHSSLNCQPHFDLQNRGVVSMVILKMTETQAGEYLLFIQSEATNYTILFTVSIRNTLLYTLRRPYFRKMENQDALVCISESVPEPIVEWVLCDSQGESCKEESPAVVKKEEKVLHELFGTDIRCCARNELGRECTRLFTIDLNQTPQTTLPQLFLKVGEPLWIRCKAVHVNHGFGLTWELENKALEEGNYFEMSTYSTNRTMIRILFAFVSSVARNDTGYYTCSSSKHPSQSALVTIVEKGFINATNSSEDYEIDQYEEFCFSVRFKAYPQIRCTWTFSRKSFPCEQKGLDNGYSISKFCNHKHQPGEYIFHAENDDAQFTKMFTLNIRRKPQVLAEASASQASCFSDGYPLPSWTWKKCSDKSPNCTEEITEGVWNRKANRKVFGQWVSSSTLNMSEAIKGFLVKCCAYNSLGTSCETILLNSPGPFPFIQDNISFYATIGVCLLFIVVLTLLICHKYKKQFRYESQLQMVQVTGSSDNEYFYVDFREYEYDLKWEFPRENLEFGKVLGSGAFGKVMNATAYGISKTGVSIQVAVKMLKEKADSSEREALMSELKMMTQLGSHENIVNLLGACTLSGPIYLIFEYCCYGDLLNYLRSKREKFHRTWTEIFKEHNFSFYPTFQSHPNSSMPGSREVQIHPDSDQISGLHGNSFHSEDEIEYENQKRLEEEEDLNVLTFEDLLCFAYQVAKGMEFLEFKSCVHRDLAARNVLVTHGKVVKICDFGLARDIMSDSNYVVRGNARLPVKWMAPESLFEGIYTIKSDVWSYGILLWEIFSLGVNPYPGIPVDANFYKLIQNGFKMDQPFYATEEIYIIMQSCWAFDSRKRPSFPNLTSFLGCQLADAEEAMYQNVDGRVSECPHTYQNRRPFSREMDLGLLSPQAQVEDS
Kind of data set: In-vitro FLT3 kinase enzyme inhibition assay (FLT3 Kinase Assay Kit). Format: biochemical. To be noted: FLT3 1.5 ng/µL, 45 min, mean ± SD, n = 3; read-out: FLT3 kinase inhibitory activity IC50. As to the method: FLT3 Kinase Assay Kit (BD Biosciences, San Diego, CA, USA) was used to determine the inhibitory selectivity of the selected compounds towards the FLT3 enzyme. briefly, serial dilution of the selected compounds was incubated with FLT3 (1.5 ng/µL) for 45 min in a kinase reaction buffer. The FLT3 enzyme reaction was halted and measured by quantifying the amount of ADP produced during the enzyme reaction. Luminescence values were measured by a Varioskan™ LUX multimode microplate reader (Thermo Scientific, Waltham, MA, USA). IC50 was calculated with nonlinear regression compared with untreated reaction using Prism version 8.4.3 (GraphPad).

Another data set has as its system HT-29. Kind of data set: MTT dose-response anti-proliferative assay, HT-29. Format: cell-based. To be noted: Homo sapiens; HT-29, MTT.
Source text: as §1, §2, §3

For another data set, the system named is HepG-2. As to the kind of experiment: MTT dose-response anti-proliferative assay, HepG-2. The class given is cell-based. To be noted: Homo sapiens, HepG2; HepG-2, MTT.
Source text: as §1, §2, §3

Data set [2] relates to normal colon epithelial cells (CCD 841 CoN). Kind of data set: Selectivity assay (MTT) on non-cancerous cells. The class given is cell-based. To be noted: for IC50: Homo sapiens, CCD 841 CoN, 72 h, MTT, read-out: IC50 of Non-Cancer Cells CCD 841; for Selectivity Index (SI) (IC50 of CCD 841/IC50 of HT29): ratio normal CCD 841 / cancer HT-29, 72 h. As for the experimental part: In an attempt to evaluate the anticancer activity of the compounds, selectivity assay was performed and compounds’ selectivity to malignant cells was determined, reflected by their selectivity index. The selectivity index (SI) was calculated by the ratio of the IC50 value of the selected compounds on normal colon epithelial cells (CCD 841 CoN) to the IC50 value of the compounds on cancer cells (HT-29). […] However, based on the designed strategy, this high selectivity towards cancer cells may be attributed to their ability to target oncogenic kinases.
Cells were plated in 96-well plates (10^3 cells/well), and after 24 h, the compounds in concentrations (0.1 to 100 μM) were incubated for 72 h. MTT procedure was then performed, the ratio of IC50 values of the compounds on non-cancerous cells (CCD 841 CoN) to the IC50 values of the compounds on cancer cells (HT-29) was determined as reported, [23, 24] using the following equation, SI = IC50 of normal cells/IC50 of cancer cells.

The molecule `Cc1nc2sc3c(c2c(=O)n1NC(=O)CN1CCOCC1)CCCC3` [Compound 10a, N-(2-methyl-4-oxo-5,6,7,8-tetrahydrobenzo[4,5]thieno[2,3-d]pyrimidin-3(4H)-yl)-2-morpholinoacetamide] showed a melting point of 222 to 225 °C. In data set [1], this molecule returned a kinase inhibition of 75.1%. Besides, the half-inhibitory concentration (IC50) with MCF-7 (Homo sapiens, MCF7, MCF-7, MTT) is 105 ± 36.4 µM. In the data set with HT-29 cells, the “growth inhibitory activities against HT-29 cells (preliminary assay)” value (shortened to “growth inhibitory activities”) is “moderate to significant” and the cytotoxic profile entry is “weak cytotoxic profile”. Further, the 50% inhibitory concentration (IC50) on FLT3 is 17.8 ± 3.8 µM. Moreover, in the data set with HT-29, the IC50 was 167 ± 8.15 µM. In the data set with HepG-2, this molecule displayed an IC50 of 188 ± 28.2 µM.

With `Cc1nc2sc3c(c2c(=O)n1NC(=O)CNc1cc(C(C)(C)C)no1)CCCC3` [Compound 9a, 2-(3-Tert-butylisoxazol-5-ylamino)-N-(2-methyl-4-oxo-5,6,7,8-tetrahydrobenzo[4,5]thieno[2,3-d]pyrimidin-3(4H)-yl)acetamide], the melting point was in the range of 89 to 92 °C. Moreover, in data set [2], the IC50 was 11.3 ± 5.6 µM and the “Selectivity Index (SI) (IC50 of CCD 841/IC50 of HT29)” value (“Selectivity Index (SI)” for short) worked out at 9.4. Moreover, it took 7.2 ± 1.9 µM to reach half-maximal inhibition with MCF-7 (Homo sapiens, MCF7, MCF-7, MTT) (IC50). For the same molecule, the “growth inhibitory activities” value in the data set on HT-29 cells was “moderate to significant”. Further, on FLT3, the concentration for half-maximal inhibition (IC50) was 20.4 ± 2.8 µM. In the data set with HT-29, the IC50 was 1.21 ± 0.34 µM. Moreover, in the data set on HepG-2, the concentration for half-maximal inhibition (IC50) is 6.62 ± 0.7 µM.

With `CC1=CC(=O)N(n2c(C)nc3sc4c(c3c2=O)CCCC4)C1=O` [Compound 4, 3-Methyl-1-(2-methyl-4-oxo-5,6,7,8-tetrahydrobenzo[4,5]thieno[2,3-d]pyrimidin-3(4H)-yl)-1H-pyrrole-2,5-dione], the melting point was in the range of 125 to 127 °C. In addition, the “growth inhibition at concentration 100 µM” value with HT-29 cells (100 µM, preliminary assay) is recorded as “weak growth inhibition”.

For `Cc1nc2sc3c(c2c(=O)n1NCC(=O)Nc1cc(C(C)(C)C)on1)CCCC3` [Compound 7b, 2-(2-Methyl-4-oxo-5,6,7,8-tetrahydrobenzo[4,5]thieno[2,3-d]pyrimidin-3(4H)-ylamino)-N-(5-tert-butylisoxazol-3-yl)acetamide], the melting point was in the range of 128 to 130 °C.

`Cc1nc2sc3c(c2c(=O)n1NC(=O)CN1CCN(C)CC1)CCCC3` [Compound 10b, N-(2-methyl-4-oxo-5,6,7,8-tetrahydrobenzo[4,5]thieno[2,3-d]pyrimidin-3(4H)-yl)-2-(4-methylpiperazin-1-yl)acetamide] registered a melting point of 187 to 189 °C. The cytotoxic profile result with HT-29 cells is recorded as “weak cytotoxic profile”.

In turn, `CCOC(=O)c1c(NC(=S)Nc2ccccc2)sc2c1CCCC2` [Compound 11, Ethyl-2-(3-phenylthioureido)-5,6,7,8-tetrahydrobenzo[b]thiophene-3-carboxylate] displayed a melting point of 170 to 172 °C. This molecule also had a kinase inhibition in data set [1] of 79.2%. In data set [2], the IC50 was 178 ± 20.4 µM and the “Selectivity Index (SI)” value stood at 99.7. For the same molecule, it took 7.53 ± 0.07 µM to reach half-maximal inhibition in the data set with MCF-7 (Homo sapiens, MCF7, MCF-7, MTT) (IC50). The molecule also showed an IC50 with MCF-7 (MCF-7, MTT) of 7.537 ± 0.07 µM. In the data set on HT-29 cells, the “growth inhibitory activities” value is “moderate to significant”. The IC50 on FLT3 is 40 ± 5.5 µM. The IC50 in the data set on HT-29 worked out at 1.78 ± 0.6 µM. This molecule showed a concentration for half-maximal inhibition (IC50) with HepG-2 of 16.4 ± 5.7 µM.

Regarding `COc1cccc2c1C(=O)c1c(O)c3c(c(O)c1C2=O)C[C@@](O)(C(=O)CO)C[C@@H]3O[C@H]1C[C@H](N)[C@H](O)[C@H](C)O1` [Dox, Doxorubicin, reference compound], the 50% inhibitory concentration (IC50) in the data set on MCF-7 (Homo sapiens, MCF7, MCF-7, MTT) turned out to be 8.43 ± 0.5 µM; in the data set on HT-29 it was 1.4 ± 1.16 µM; in the data set on HepG-2, 13.9 ± 2.2 µM.

In turn, `Cc1nc2sc3c(c2c(=O)n1N1C(=O)CN(c2ccccc2)C1=S)CCCC3` [Compound 6, 2-Methyl-3-(5-oxo-3-phenyl-2-thioxoimidazolidin-1-yl)-5,6,7,8-tetrahydrobenzo[4,5]thieno[2,3-d]pyrimidin-4(3H)-one] showed a melting point of 198 to 200 °C.

Molecule `Cc1nc2sc3c(c2c(=O)n1NC(=O)CCl)CCCC3` [Compound 8, 2-Chloro-N-(2-methyl-4-oxo-5,6,7,8-tetrahydrobenzo[4,5]thieno[2,3-d]pyrimidin-3(4H)-yl)acetamide] gave a kinase inhibition in data set [1] of 49.6%. The concentration for half-maximal inhibition (IC50) was found to be 151 ± 20.2 µM in data set [2]; 11 ± 0.8 µM with MCF-7 (Homo sapiens, MCF7, MCF-7, MTT); 2 ± 0.62 µM with HT-29; 13.5 ± 2.7 µM in the data set on HepG-2. Also, the “Selectivity Index (SI)” value in data set [2] was 75.5. Moreover, the “growth inhibitory activities” value in the data set with HT-29 cells is given as “moderate to significant”.

The molecule `Cc1nc2sc3c(c2c(=O)n1NC(=S)Nc1ccccc1)CCCC3` [Compound 5, 1-(2-Methyl-4-oxo-5,6,7,8-tetrahydrobenzo[4,5]thieno[2,3-d]pyrimidin-3(4H)-yl)-3-phenylthiourea] returned a melting point of 138 to 140 °C.

For the molecule `Cc1nc2sc3c(c2c(=O)n1NCC(=O)Nc1cc(C(C)(C)C)no1)CCCC3` [Compound 7a, 2-(2-Methyl-4-oxo-5,6,7,8-tetrahydrobenzo[4,5]thieno[2,3-d]pyrimidin-3(4H)-ylamino)-N-(3-tert-butylisoxazol-5-yl)acetamide], the melting point fell in the range of 120 to 122 °C.

With `Nn1c(Nc2ccccc2)nc2sc3c(c2c1=O)CCCC3` [Compound 12, 3-Amino-2-phenylamino-5,6,7,8-tetrahydrobenzo[4,5]thieno[2,3-d]pyrimidin-4(3H)-one], the melting point lay within 198 to 200 °C. Besides, in data set [1], the kinase inhibition was determined as 65.3%. Also, on FLT3, the IC50 is 27.2 ± 5.6 µM.

The record behind these values is publication PMC8880588, “In-Silico Screening of Novel Synthesized Thienopyrimidines Targeting Fms Related Receptor Tyrosine Kinase-3 and Their In-Vitro Biological Evaluation” (Pharmaceuticals, 2022).
